# Source: patent US20240361338A1, “DIAGNOSIS AND TREATMENT OF ECTOPIC ENDOMETRIOSIS” (FERRING B.V., priority 2021, published 2024)
# Assays:
# ectopic E-MSCs [1] = test: Matrigel transwell invasion assay, ectopic E-MSCs; assay type: cell-based, human; conditions: 5 μM spiperone pre-treatment 1 h, then 100 nM quinagolide, ectopic EMSCs
# Protocol: FIG. 4: Quinagolide effect on EMSCs invasion. A and B: Representative micrographs (A) and quantification (B) of quinagolide effect (100 nM) on eutopic and ectopic (both ovarian and peritoneal) EMSCs invasion (original magnification: ×100). C: Concentration response effect of quinagolide treated ectopic EMSCs invasion. D and E: Quantification (D) and representative micrographs (E) (original magnification: ×100) of invasion assays performed on ectopic EMSCs (both ovarian and peritoneal), treated with 100 nM quinagolide (Q100 nM), 5 μM spiperone(S) or a combination of quinagolide and spiperone (S+Q100 nM). All invasion data are represented as mean±SD of at least three independent experiments, performed on different EMSC lines, and normalized to untreated cells (CTL). One-way ANova was performed: *=p<0.05 and **=p<0.001 vs CTL. Quinagolide powder (provided by Ferring Pharmaceuticals) was stored at 4° C. and resuspended in dimethylsulphoxide (DMSO) to a stock solution of 1 mM immediately before use. Spiperone powder (Sigma-Aldrich) was resuspended in water to a stock concentration of 1 mM and stored at −20° C. Cabergoline powder (Sigma-Aldrich) was dissolved in DMSO to a stock concentration of 25 mM and stored at −20° C. […] Quinagolide, cabergoline, sorafenib and cabozantinib and were administered for 24 hours during co-culture experiments, while spiperone was added to culture medium 1 h before quinagolide treatment. […] E-MSCs were seeded in triplicate in Matrigel-precoated (100 μg Matrigel/transwell) 8-um pore transwells at a concentration of 50,000 cells per well in 200 μl of RPMI 2% FCS with/without quinagolide at the indicated concentration. To test the D2 antagonist effect, E-MSCs were pre-treated with spiperone (5 μM) for 1 h at 37° C. before cell detachment. After 48 hours, invaded E-MSCs on the bottom side of the transwell were fixed with methanol and stained with crystal violet. At least five pictures per transwell were acquired (original magnification: 100×), and the percentage of transwell area covered by invaded EMSCs was quantitatively measured by ImageJ software.
# ectopic E-MSCs [2] = test: Endothelial differentiation (CD31) of ectopic E-MSCs in co-culture with HUVECs; assay type: cell-based, human; conditions: for endothelial differentiation (CD31 expression) of E-MSCs: 1 μM, 24 h treatment, 48 h co-culture with HUVECs
# Protocol: FIG. 5: Quinagolide effect on EMSCs endothelial differentiation. A. FACS gating-strategy for the analysis of CD31^+ EMSCs after direct 48 h co-culture with HUVECs. EMSCs are gated as GFP negative population, and CD31 expression is evaluated on the described gated EMSCs after 48 h co-culture with HUVECs as percentage of CD31 APC positive events. B, C and D: Representative flow cytometry micrographs and quantification, expressed as percentage of variation respect to control co-culture, of the effect of 24 h treatment of EMSCs with 25 μM cabergoline, 1 μM sorafenib, 1 μM cabozantinib (B), 100 nM quinagolide (C) and the combination of 5 μM spiperone and 100 nM quinagolide (D) on EMSCs CD31 expression after 48 h of co-culture with HUVECs. Data are represented as mean±SD of at least three independent experiments, performed on different ectopic EMSC lines, and normalized to untreated co-culture. One-way ANova was performed: *=p<0.05 and ***=p<0.001 vs control.
# (BSA)-Phosphate Buffered Saline (PBS) (Sigma). For each staining, 100,000 cells were incubated for 20 minutes at 4° C. with FITC, APC or PE-conjugated antibodies against: CD29, CD44, CD73, CD90 (BD Bioscences, Franklin Lakes, NJ, USA); CD31, CD34, CD105, CD140b, CD146, TEK receptor tyrosine kinase (Tie2), Sushi domain-containing protein 2 (SUSD2) (Miltenyi Biotech, Bergisch Gladbach, Germany); CD45 (AbD Serotec, Raleigh, NC, USA), or epithelial cell adhesion molecule (EPCAM) (BioLegend, San Diego, CA, USA). Labelled cells were washed by centrifugation and final pellet was resuspended in 200 μl of 0.1% BSA-PBS before cytofluorimetric analysis. Isotype (Miltenyi Biotec) was used as negative control.
# Quinagolide powder (provided by Ferring Pharmaceuticals) was stored at 4° C. and resuspended in dimethylsulphoxide (DMSO) to a stock solution of 1 mM immediately before use. Spiperone powder (Sigma-Aldrich) was resuspended in water to a stock concentration of 1 mM and stored at −20° C. Cabergoline powder (Sigma-Aldrich) was dissolved in DMSO to a stock concentration of 25 mM and stored at −20° C. Sorafenib and cabozantinib (Sigma-Aldrich) were resuspended in DMSO to a final concentration of 10 mM and according to the manufacturer's instructions, and stored at −20° C. and −80° C., respectively. Quinagolide, spiperone and cabergoline were diluted 1:100 (final concentration 100 nM), 1:1000 (final concentration 5 μM) and 1:1000 (final concentration 25 μM) respectively. Quinagolide, cabergoline, sorafenib and cabozantinib and were administered for 24 hours during co-culture experiments, while spiperone was added to culture medium 1 h before quinagolide treatment. For invasion assays, E-MSCs were treated with spiperone 1 h before the cell detachment and quinagolide was added only when cells were plated on Matrigel. […]
# ectopic E-MSCs [3] = conditions: 25 μM, previously described (Canosa et al., 2017), positive control; cited from earlier work
compound,measurement,setting,value
O=C(CCCN1CCC2(CC1)C(=O)NCN2c1ccccc1)c1ccc(F)cc1 [spiperone],reversal of quinagolide anti-invasive effect,ectopic E-MSCs [1],completely reverted
same,block of quinagolide effect on CD31 expressing E-MSCs,"ectopic E-MSCs [2]; 5 μM spiperone one hour before 100 nM quinagolide, co-culture",blocked
C=CCN1C[C@H](C(=O)N(CCCN(C)C)C(=O)NCC)C[C@@H]2c3cccc4[nH]cc(c34)C[C@H]21 [cabergoline],E-MSC's angiogenic potential,ectopic E-MSCs [3],decrease
COc1cc2nccc(Oc3ccc(NC(=O)C4(C(=O)Nc5ccc(F)cc5)CC4)cc3)c2cc1OC [cabozantinib],endothelial differentiation (CD31 expression) of E-MSCs,ectopic E-MSCs [2],no effect
CNC(=O)c1cc(Oc2ccc(NC(=O)Nc3ccc(Cl)c(C(F)(F)F)c3)cc2)ccn1 [Sorafenib],endothelial differentiation (CD31 expression) of E-MSCs,ectopic E-MSCs [2],no effect
